Experimental data taken from patent publication US9452225B2, “GLP-1 prodrugs” (Novo Nordisk A/S, priority 2012, dated 2016).
Like-named read-outs stand apart in the source and are kept apart here. Numbered stars: 1 amine (or outer) side, 2 acyl side, 3 side chain; on linkers, the order of the positions; unused ones are H or OH. Square brackets hold non-standard residues; d marks the D form. Side chains are listed from the residue outwards. Peptide text beside a SMILES is read from it. * marks the point of attachment. Decanoyl(10-(4-HOOC-PhO)) = O=C(O)c1ccc(OCCCCCCCCCC(=O)*)cc1; Lac(3-(imidazol-4-yl)) = O=C(O)[C@@H](O)Cc1c[nH]cn1; C18 diacid = O=C(O)CCCCCCCCCCCCCCCCC(=O)*; γGlu = O=C(O)[C@H](CCC(=O)[*:2])N[*:1]; NMeI = CC[C@H](C)[C@H](NC)C(=O)O; NMeV = CN[C@H](C(=O)O)C(C)C; AEEA = NCCOCCOCC(=O)O; Aib = CC(C)(N)C(=O)O; Glycolyl = O=C(CO)*

How the values were obtained:
[1] = Prodrug half-life in vitro, buffer method; type: physicochemical
Procedure: (§1) The purpose of this example is to test the in vitro half-lives (T½) of the GLP-1 prodrugs of the invention, in comparison to conceptually different prodrugs. In what follows two in vitro methods are described, viz. a method conducted in buffer, and a method conducted in plasma.
Buffer: 25 mM Phosphate (Ionic strength: 154 mM, pH 7.4 at 37° C.)
NaH2PO4.2H2O (1.95 g, 12.5 mmol) and NaCl (2.61 g, 44.7 mmol) were dissolved in millipore water (approximately 450 mL) and adjusted to pH=7.44 at approximately 20° C. with concentrated NaOH and 1 M NaOH. Water was added to 500.00 mL.
The compound to be tested was dissolved in buffer to a concentration of 1.0 mg/mL and incubated at 37° C. Samples were taken at adequate intervals and the % parent drug compared to prodrug formed as function of time was evaluated by the UPLC method as referred to in Table 1 by comparing the areas under the curves for the two corresponding peaks. These UPLC methods are described in the general experimental section above (UPLC_A, and UPLC_B).
(§2) The half life of the prodrug (T½) was calculated from the slope of a linear fit to the curve of ln(% prodrug (Y)) as a function of time (t), as follows: Y=÷αt+k Math. 1 T½=ln(2)/α Math. 2 Plasma Method Buffer: 200 mM Phosphate, pH 7.4 at 37° C.
The resulting half-lives are set out in Table 1 below. For comparison, the T½ in buffer of native GLP-1(7-37) (His7 variant of SEQ ID NO: 1) was 13 minutes (0.2 hours).

[2] = Prodrug half-life in vitro, plasma method (minipig heparin plasma); type: in vitro ADME; details: minipig heparin plasma 800 μL + 200 μL 200 mM phosphate pH 7.4, 37° C.; UPLC_A, or UPLC_B for compounds marked *; read-out: T½ in plasma (converted)
Procedure: as §1, §2
NaH2PO4.2H2O (15.61 g, 100 mmol) was dissolved in milliQ water (approximately 450 mL) and adjusted to pH=7.44 at approximately 20° C. with concentrated NaOH (aq) and 1 M NaOH (aq). Water was added to 500.00 mL.
Serum: Minipig Serum, Heparin-Plasma
Fresh blood was tapped from minipig into 9 mL LH lithium heparin Vacuette tubes from Greiner bio-one (catalogue number 455084). After cooling on ice it was centrifuged (10 min, 4° C., 3000 rpm/1942G) and the supernatant isolated and kept at −18° C. before use.
100 nmol of the compound to be tested was dissolved in 200 μL buffer, added to 800 μL plasma (centrifuged), and incubated at 37° C. Samples (50 μL) were drawn at appropriate intervals into 150 μL absolute EtOH. After a short stirring the sample was centrifuged and the supernatant transferred to the UPLC vial (10 μL injection).
The % parent drug compared to prodrug formed as a function of time was evaluated by UPLC, and the half-life calculated, both in the same way as described above under the Buffer method.

[3] = 25 mM phosphate buffer pH 7.4, 37° C., 1.0 mg/mL, UPLC_A, or UPLC_B for compounds marked *, read-out: T½ in buffer (converted)

Row | half-life at 1 mg/mL ([1]; buffer, pH 7.4) | Compound | half-life at 1 mg/mL [1, 3] | half-life [2]
1 |  | CC[C@H](C)[C@H](NC(=O)[C@H](Cc1ccccc1)NC(=O)[C@H](CCC(=O)O)NC(=O)[C@H](CCCNC(=N)N)NC(=O)[C@@H](NC(=O)[C@H](C)NC(=O)[C@H](CCC(N)=O)NC(=O)[C@H](CCC(=O)O)NC(=O)[C@H](CCC(=O)O)NC(=O)[C@H](CC(C)C)NC(=O)[C@H](Cc1ccc(O)cc1)NC(=O)[C@H](CCCCNC(=O)COCCOCCNC(=O)COCCOCCNC(=O)CC[C@H](NC(=O)CCCCCCCCCOc1ccc(C(=O)O)cc1)C(=O)O)NC(=O)[C@H](CO)NC(=O)[C@@H](NC(=O)[C@H](CC(=O)O)NC(=O)[C@H](CO)NC(=O)[C@@H](NC(=O)[C@H](Cc1ccccc1)NC(=O)[C@@H](NC(=O)CNC(=O)[C@H](CCC(=O)O)NC(=O)[C@H](C)NC(=O)[C@H](Cc1c[nH]cn1)OC(=O)[C@@H](NC(=O)CO)C(C)C)[C@@H](C)O)[C@@H](C)O)C(C)C)C(C)C)C(=O)N[C@@H](C)C(=O)N[C@@H](CCCCNC(=O)COCCOCCNC(=O)COCCOCCNC(=O)CC[C@H](NC(=O)CCCCCCCCCOc1ccc(C(=O)O)cc1)C(=O)O)C(=O)N[C@@H](CC(C)C)C(=O)N[C@H](C(=O)N[C@@H](CCCNC(=N)N)C(=O)NCC(=O)N[C@@H](CCCNC(=N)N)C(=O)NCC(=O)O)C(C)C [Example 1b] (Glycolyl-V[Lac(3-(imidazol-4-yl))]AEGTFTSDVSK([AEEA-AEEA-γGlu-Decanoyl(10-(4-HOOC-PhO))])YLEEQAVREFIAK([AEEA-AEEA-γGlu-Decanoyl(10-(4-HOOC-PhO))])LVRGRG-OH) | 0.65 h | 
2 |  | CC[C@H](C)[C@H](NC(=O)[C@H](Cc1ccccc1)NC(=O)[C@H](CCC(=O)O)NC(=O)[C@H](CCCNC(=N)N)NC(=O)[C@@H](NC(=O)[C@H](C)NC(=O)[C@H](CCC(N)=O)NC(=O)[C@H](CCC(=O)O)NC(=O)[C@H](CCC(=O)O)NC(=O)[C@H](CC(C)C)NC(=O)[C@H](Cc1ccc(O)cc1)NC(=O)[C@H](CCCCNC(=O)COCCOCCNC(=O)COCCOCCNC(=O)CC[C@H](NC(=O)CCCCCCCCCOc1ccc(C(=O)O)cc1)C(=O)O)NC(=O)[C@H](CO)NC(=O)[C@@H](NC(=O)[C@H](CC(=O)O)NC(=O)[C@H](CO)NC(=O)[C@@H](NC(=O)[C@H](Cc1ccccc1)NC(=O)[C@@H](NC(=O)CNC(=O)[C@H](CCC(=O)O)NC(=O)[C@H](C)NC(=O)[C@H](Cc1c[nH]cn1)OC(=O)[C@@H](NC(=O)[C@@H](NC)C(C)C)C(C)C)[C@@H](C)O)[C@@H](C)O)C(C)C)C(C)C)C(=O)N[C@@H](C)C(=O)N[C@@H](CCCCNC(=O)COCCOCCNC(=O)COCCOCCNC(=O)CC[C@H](NC(=O)CCCCCCCCCOc1ccc(C(=O)O)cc1)C(=O)O)C(=O)N[C@@H](CC(C)C)C(=O)N[C@H](C(=O)N[C@@H](CCCNC(=N)N)C(=O)NCC(=O)N[C@@H](CCCNC(=N)N)C(=O)NCC(=O)O)C(C)C [Example 2] (H-[NMeV]V[Lac(3-(imidazol-4-yl))]AEGTFTSDVSK([AEEA-AEEA-γGlu-Decanoyl(10-(4-HOOC-PhO))])YLEEQAVREFIAK([AEEA-AEEA-γGlu-Decanoyl(10-(4-HOOC-PhO))])LVRGRG-OH) | 42.5 h | 27.5 h
3 | 11 h | CC[C@H](C)[C@H](N)C(=O)N[C@H](C(=O)O[C@@H](Cc1c[nH]cn1)C(=O)NC(C)(C)C(=O)N[C@@H](CCC(=O)O)C(=O)NCC(=O)N[C@H](C(=O)N[C@@H](Cc1ccccc1)C(=O)N[C@H](C(=O)N[C@@H](CO)C(=O)N[C@@H](CC(=O)O)C(=O)N[C@H](C(=O)N[C@@H](CO)C(=O)N[C@@H](CO)C(=O)N[C@@H](Cc1ccc(O)cc1)C(=O)N[C@@H](CC(C)C)C(=O)N[C@@H](CCC(=O)O)C(=O)N[C@@H](CCC(=O)O)C(=O)N[C@@H](CCC(N)=O)C(=O)N[C@@H](C)C(=O)N[C@@H](C)C(=O)N[C@@H](CCCNC(=N)N)C(=O)N[C@@H](CCCCNC(=O)COCCOCCNC(=O)COCCOCCNC(=O)CC[C@H](NC(=O)CCCCCCCCCCCCCCCCC(=O)O)C(=O)O)C(=O)N[C@@H](Cc1ccccc1)C(=O)N[C@H](C(=O)N[C@@H](C)C(=O)N[C@@H](Cc1c[nH]c2ccccc12)C(=O)N[C@@H](CC(C)C)C(=O)N[C@H](C(=O)N[C@@H](CCCNC(=N)N)C(=O)NCC(=O)N[C@@H](CCCNC(=N)N)C(=O)NCC(=O)O)C(C)C)[C@@H](C)CC)C(C)C)[C@@H](C)O)[C@@H](C)O)C(C)C [Example 6a] (H-IV[Lac(3-(imidazol-4-yl))][Aib]EGTFTSDVSSYLEEQAARK([AEEA-AEEA-γGlu-C18 diacid])FIAWLVRGRG-OH) |  | 
4 |  | CC[C@H](C)[C@H](NC(=O)[C@H](Cc1ccccc1)NC(=O)[C@H](CCC(=O)O)NC(=O)[C@H](CCCNC(=N)N)NC(=O)[C@@H](NC(=O)[C@H](C)NC(=O)[C@H](CCC(N)=O)NC(=O)[C@H](CCC(=O)O)NC(=O)[C@H](CCC(=O)O)NC(=O)[C@H](CC(C)C)NC(=O)[C@H](Cc1ccc(O)cc1)NC(=O)[C@H](CCCCNC(=O)COCCOCCNC(=O)COCCOCCNC(=O)CC[C@H](NC(=O)CCCCCCCCCOc1ccc(C(=O)O)cc1)C(=O)O)NC(=O)[C@H](CO)NC(=O)[C@@H](NC(=O)[C@H](CC(=O)O)NC(=O)[C@H](CO)NC(=O)[C@@H](NC(=O)[C@H](Cc1ccccc1)NC(=O)[C@@H](NC(=O)CNC(=O)[C@H](CCC(=O)O)NC(=O)[C@H](C)NC(=O)[C@H](Cc1c[nH]cn1)OC(=O)[C@@H](NC(=O)CN)C(C)C)[C@@H](C)O)[C@@H](C)O)C(C)C)C(C)C)C(=O)N[C@@H](C)C(=O)N[C@@H](CCCCNC(=O)COCCOCCNC(=O)COCCOCCNC(=O)CC[C@H](NC(=O)CCCCCCCCCOc1ccc(C(=O)O)cc1)C(=O)O)C(=O)N[C@@H](CC(C)C)C(=O)N[C@H](C(=O)N[C@@H](CCCNC(=N)N)C(=O)NCC(=O)N[C@@H](CCCNC(=N)N)C(=O)NCC(=O)O)C(C)C [Example 1a] (H-GV[Lac(3-(imidazol-4-yl))]AEGTFTSDVSK([AEEA-AEEA-γGlu-Decanoyl(10-(4-HOOC-PhO))])YLEEQAVREFIAK([AEEA-AEEA-γGlu-Decanoyl(10-(4-HOOC-PhO))])LVRGRG-OH) | 1.5 h | 
5 | 45.6 h | CC[C@H](C)[C@H](NC)C(=O)N[C@H](C(=O)O[C@@H](Cc1c[nH]cn1)C(=O)NC(C)(C)C(=O)N[C@@H](CCC(=O)O)C(=O)NCC(=O)N[C@H](C(=O)N[C@@H](Cc1ccccc1)C(=O)N[C@H](C(=O)N[C@@H](CO)C(=O)N[C@@H](CC(=O)O)C(=O)N[C@H](C(=O)N[C@@H](CO)C(=O)N[C@@H](CO)C(=O)N[C@@H](Cc1ccc(O)cc1)C(=O)N[C@@H](CC(C)C)C(=O)N[C@@H](CCC(=O)O)C(=O)N[C@@H](CCC(=O)O)C(=O)N[C@@H](CCC(N)=O)C(=O)N[C@@H](C)C(=O)N[C@@H](C)C(=O)N[C@@H](CCCNC(=N)N)C(=O)N[C@@H](CCCCNC(=O)COCCOCCNC(=O)COCCOCCNC(=O)CC[C@H](NC(=O)CCCCCCCCCCCCCCCCC(=O)O)C(=O)O)C(=O)N[C@@H](Cc1ccccc1)C(=O)N[C@H](C(=O)N[C@@H](C)C(=O)N[C@@H](Cc1c[nH]c2ccccc12)C(=O)N[C@@H](CC(C)C)C(=O)N[C@H](C(=O)N[C@@H](CCCNC(=N)N)C(=O)NCC(=O)N[C@@H](CCCNC(=N)N)C(=O)NCC(=O)O)C(C)C)[C@@H](C)CC)C(C)C)[C@@H](C)O)[C@@H](C)O)C(C)C [Example 6] (H-[NMeI]V[Lac(3-(imidazol-4-yl))][Aib]EGTFTSDVSSYLEEQAARK([AEEA-AEEA-γGlu-C18 diacid])FIAWLVRGRG-OH) |  | 
